Source: PubChem BioAssay (NCI)
Values joined by “and” are separate entries in the source; they are usually repeats but may differ in a detail not shown here. Equal values may be shown once.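 48-hour exposure; five concentrations; linearly interpolated endpoints. Abbreviation: GI50, concentration required for 50% inhibition of growth. TGI: concentration producing complete growth inhibition.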

Experiments:
Assay in all cases: NCI-60 cell line screen, 48 h
UACC-257 melanoma = system: UACC-257 melanoma
SNB-19 CNS = system: SNB-19 CNS
IGROV1 ovarian = system: IGROV1 ovarian
HCT-116 colon = system: HCT-116 colon
RPMI-8226 leukemia = system: RPMI-8226 leukemia
SK-MEL-2 melanoma = system: SK-MEL-2 melanoma
A549 NSCLC = system: A549 NSCLC
HL-60(TB) leukemia = system: HL-60(TB) leukemia
COLO 205 colon = system: COLO 205 colon
OVCAR-4 ovarian = system: OVCAR-4 ovarian

Compound | TGI (UACC-257 melanoma) | TGI (SNB-19 CNS) | TGI (IGROV1 ovarian) | TGI (HCT-116 colon) | TGI (RPMI-8226 leukemia) | TGI (SK-MEL-2 melanoma) [µM] | TGI (A549 NSCLC) | TGI (HL-60(TB) leukemia) | TGI (COLO 205 colon) | TGI (OVCAR-4 ovarian) [µM] | GI50 (UACC-257 melanoma) [µM] | GI50 (SNB-19 CNS) | GI50 (IGROV1 ovarian) | GI50 (HCT-116 colon) [µM] | GI50 (RPMI-8226 leukemia) [µM] | GI50 (SK-MEL-2 melanoma) [µM] | GI50 (A549 NSCLC) [µM] | GI50 (HL-60(TB) leukemia) [µM] | GI50 (COLO 205 colon) [µM] | GI50 (OVCAR-4 ovarian) [µM]
Ic1cc2c(cc1C1SCCCS1)OCO2 | > 100 µM | > 100 µM | > 100 µM | > 100 µM | > 100 µM | > 100 | > 100 µM | > 100 µM | > 100 µM | > 100 |  |  |  |  |  |  |  |  |  | 
COC1=CC(c2ccc[nH]2)=N/C1=C\c1[nH]c(C)c(C(=O)CCCCC(=O)Oc2ccc3c(c2)CCC2C3CC[C@]3(C)[C@@H](O)CC[C@@H]23)c1C (some centres not stated) | > 100 µM | > 100 µM | > 100 µM | 13.6 µM | > 100 µM | > 100 | > 100 µM | > 100 µM | > 100 µM | > 100 | > 100 | 53.1 µM | 31.1 µM | 3.1 | 4.11 | 9.88 | 6.58 | > 100 | > 100 | 9.44
CC(=O)NC1C(OCc2ccccc2)OC(COC(=O)CCCCCCCCCCNc2ccc([N+](=O)[O-])c3[nH]c4ccccc4c(=O)c23)C(O)C1OC(C)C(=O)NC(C)C(=O)NC(CCC(N)=O)C(=O)OCc1ccccc1 (configuration not stated) | > 100 µM | > 100 µM | > 100 µM | > 100 µM | > 100 µM | > 100 | > 100 µM | > 100 µM | > 100 µM | > 100 |  |  |  |  |  |  |  |  |  | 
COc1ccc2nc3cc(Cl)ccc3c(Sc3ccc([N+](=O)[O-])cc3)c2c1 | > 100 µM | > 100 µM | > 100 µM | > 100 µM | > 100 µM | > 100 | > 100 µM | > 100 µM | > 100 µM | > 100 | > 100 | > 100 µM | > 100 µM | > 100 |  | > 100 | > 100 |  | > 100 | > 100
CS(=O)(=O)CC(=O)c1ccccc1 | > 100 µM | > 100 µM | > 100 µM | > 100 µM | > 100 µM | > 100 | > 100 µM | > 100 µM | > 100 µM | > 100 |  |  |  |  |  |  |  |  |  | 
COc1ccc(C2C(C)C(=O)C(C)C(c3ccc(OC)cc3)N2N=O)cc1 (configuration not stated) | > 1000 µM | 750 µM and > 873 µM | 391 µM and 656 µM | 455 µM | > 1000 µM | 602 | 750 µM and > 1000 µM | > 1000 µM | > 750 µM | > 1000 |  | > 71 µM and 73.1 µM | > 90.8 µM and 138 µM |  | > 750 |  | 409 | > 750 | > 750 | > 750
Clc1ccc(OCc2nnc3n2N=C(c2ccc(Cl)cc2Cl)CS3)cc1 | 50 µM | > 100 µM | 50.8 µM | 30.4 µM | 68.5 µM | 45.8 | > 100 µM | > 100 µM | 86.7 µM | 79 | 25 | 28.5 µM | 19.8 µM | 13.2 | 21.1 | 22.1 | 32.6 | 31.8 | 26.3 | 23.7
CCCCCCCCCCCCOC1C(CNC(=O)C2OC3OC(C)(C)OC3C2NC(=O)Nc2ccc(CC(=O)NC(Cc3ccccc3)C(=O)O)cc2)OC2OC(C)(C)OC21 (configuration not stated) | > 25 µM | > 25 µM | > 25 µM | > 25 µM | > 25 µM | > 25 | > 25 µM | > 25 µM | > 25 µM | > 25 | > 25 | > 25 µM | 22.5 µM | > 25 | 15.9 | > 25 | > 25 | > 25 | > 25 | > 25
CCCCCCCCC(=O)OCC(CS[As](C)C)OC(=O)CCCCCCCC (configuration not stated) | 15.3 µM | 42.9 µM | > 48.4 µM | 11.3 µM | 2.16 µM | 58.9 | 41.7 µM | 1.78 µM | 24.8 µM | 38.4 | 1.4 | 11.5 µM | 5.1 µM | 0.373 | 0.33 | 13.2 | 8.36 | 0.285 | 0.557 | 9.89
CC(=O)Nc1ccc(COC(O)CN2CCCCC2)cc1[N+](=O)[O-] (configuration not stated) | > 100 µM | > 100 µM | > 100 µM | > 100 µM | > 100 µM | > 100 | > 100 µM | > 100 µM | > 100 µM | > 100 |  |  |  |  |  |  |  |  |  | 
Cc1c(O)c2c(c(O)c1Br)C(=O)C=CC2=O | 2.52 µM and 2.22 µM | 3.74 µM | 3.05 µM and 3.56 µM | 0.817 µM and 2.16 µM | 1.01 µM and 0.436 µM | 4.45 | 4.47 µM and 29.4 µM | 0.113 µM and 0.016 µM | 0.428 µM and 1.45 µM | 2.23 | 0.924 |  |  | 1.01 | 0.138 | 1.93 | 4.14 |  | 0.334 | 1.03
COc1cc(-c2c(C#N)c(N)nc(N3CCOCC3)c2C#N)cc(OC)c1OC | > 100 µM | > 100 µM | > 100 µM | > 100 µM | > 100 µM | > 100 | > 100 µM | > 100 µM | > 100 µM | > 100 | > 100 | 89.9 µM | 92.1 µM | 86.5 | > 100 | > 100 | > 100 | > 100 | 5.39 | > 100
OCCN1CCN2C=C(C3CCCC4N(CCO)CCN34)CCC21 (configuration not stated) | > 100 µM | > 100 µM | > 100 µM | > 87.2 µM | 44.9 µM | > 75.6 | > 100 µM | 24 µM | > 100 µM | > 100 |  |  |  |  |  |  |  |  |  | 
Cc1ccc(NC(=O)c2sc3nc4c(cc3c2N)C(=O)CCC4)cc1C | > 100 µM | > 100 µM | > 100 µM | > 100 µM | > 30.4 µM | > 100 | > 100 µM | 1.72 µM | 0.936 µM | > 100 | 21.6 | 0.652 µM | 2.2 µM | 0.546 | 1.57 | 0.464 | 0.704 | 0.36 | 0.309 | 1.13
